# In patent US20110184034A1, “Severe sepsis preventive therapeutic agent” (priority 2002, published 2011):
# What was measured:
# [1] = system: E. coli O111 inoculated galactosamine-loaded female BALB/c mice; test: Galactosamine loaded mouse Escherichia coli inoculated lethal model, survival; assay type: in vivo; details: E. coli O111 5.9×10^5 CFU i.p. with galactosamine 1 g/kg; test substance 30 mg/kg orally at 1 hr after bacterial inoculation; observed 6 days
# Protocol: Since sepsis is a systemic inflammatory response caused by infection, the effect of a test substance (Reference Example B26) by administration after bacterial inoculation in infection model was studied. […] The test substance was suspended in 0.5% aqueous methyl cellulose solution, and orally administered (30 mg/kg) immediately, 30 min and 1, 2 and 4 hr after the bacterial inoculation. The solvent was orally administered to the control group immediately after the bacterial inoculation.
# In other words, the test substance can be expected to show effect of improving the state of severe sepsis complicated with organ dysfunction.
# [2] = system: TNF-α production, mouse macrophage cell line RAW264.7; test: TNF-α production by β-amyloid peptide (1-40) in RAW264.7; assay type: cell-based; details: β-amyloid peptide (1-40) 10 μM + interferon-γ 10 U/mL
# Protocol: (§1) On the previous day of the experiment, the cells were suspended in RPMI-1640 medium supplemented with 10% inactivated fetal calf serum to 5×10^5 cells/mL and inoculated to a 96-well microplate at 0.2 mL/well. After incubation at 37° C. under 5% CO2/95% air overnight, the medium was changed to an RPMI-1640 medium supplemented with 1% inactivated fetal calf serum, a test substance and β-amyloid peptide (1-40) (final concentration 10 μM) and interferon-γ (final concentration 10 U/mL) were added. After further incubation overnight, the concentrations of tumor necrosis factor-α (TNF-α) and IL-6 in culture supernatants were measured using an enzyme immunoassay kit manufactured by Amersham. The test substance was dissolved at 10 mM in N,N-dimethylformamide and diluted with an RPMI-1640 medium supplemented with 1%, inactivated fetal calf serum to the concentration of 0.1 mM, then diluted with a medium to a 10-fold concentration of the final concentration and 1/10 was added.
# [3] = system: IL-6 production, mouse macrophage cell line RAW264.7; test: IL-6 production by β-amyloid peptide (1-40) in RAW264.7; assay type: cell-based; details: β-amyloid peptide (1-40) 10 μM + interferon-γ 10 U/mL
# Protocol: as §1
# [4] = system: LPS-inoculated female BALB/c mice; test: Effect by administration after LPS inoculation in endotoxin shock model (1), survival; assay type: in vivo, mouse; details: LPS 10 mg/kg i.p.; test substance 30 mg/kg i.p. at 1 hr after LPS inoculation; observed one week
# Protocol: To investigate the treatment effect during the process toward an advanced degree after the onset of sepsis, the effect of a test substance (Reference Example B1) by administration after LPS inoculation in an endotoxin shock model was investigated. […] The test substance was suspended in 0.5% aqueous methyl cellulose solution, and intraperitoneally inoculated (30 mg/kg) at 1 hr before, immediately after, 30 min after and 1 hr after LPS inoculation. The solvent was given to the control group at 1 hr before LPS inoculation.
# [5] = system: TLR4 signal (LPS), mouse macrophage cell line RAW264.7; test: NO production by TLR4 selective agonist LPS in RAW264.7; assay type: cell-based; details: RAW264.7, LPS 5 ng/mL + interferon-γ 0.1 ng/mL, nitrite ion
# Protocol: (§2) Using mouse macrophage cell line RAW264.7, the suppressive effect of the test substance on cytokine production by a TLR selective agonist was investigated. On the previous day of the experiment, the cells were suspended in RPMI-1640 medium supplemented with 10% inactivated fetal calf serum to 5×10^5 cells/mL and inoculated to a 96-well microplate at 0.2 mL/well. After incubation at 37° C. under an atmosphere of 5% CO2/95% air overnight, the medium was changed to an RPMI-1640 medium supplemented with 1% inactivated fetal calf serum, and a test substance, various TLR agonists and interferon-γ (final concentration 0.1 ng/mL) were added. After further incubation overnight, the concentration of nitrite ion (stable metabolite of NO) in the culture supernatant was quantified by fluorescence method using 2,3-dimaminonaphthalene. As the TLR4 selective agonist, LPS was added, as the TLR2 selective agonist, peptide glycan (PGN) was added, and as the TLR9 selective agonist, CpG oligoDNA (CPG) was added, to the final concentrations of 5 ng/mL, 1 μg/mL and 75 nmol/L, respectively. In addition, the test substance was dissolved at 10 mM in N,N-dimethylformamide, diluted with an RPMI-1640 medium supplemented with 1% inactivated fetal calf serum to the concentration of 0.1 mM, then diluted with a medium to a 10-fold concentration of the final concentration and 1/10 was added.
# [6] = system: TLR2 signal (PGN), mouse macrophage cell line RAW264.7; test: NO production by TLR2 selective agonist peptide glycan (PGN) in RAW264.7; assay type: cell-based; details: RAW264.7, PGN 1 μg/mL + interferon-γ 0.1 ng/mL, nitrite ion
# Protocol: as §2
# [7] = system: TLR9 signal (CPG), mouse macrophage cell line RAW264.7; test: NO production by TLR9 selective agonist CpG oligoDNA (CPG) in RAW264.7; assay type: cell-based; details: RAW264.7, CpG oligoDNA 75 nmol/L + interferon-γ 0.1 ng/mL, nitrite ion
# Protocol: as §2
# [8] = system: LPS-inoculated female BALB/c mice; test: Effect by administration after LPS inoculation in endotoxin shock model (2), survival; assay type: in vivo, mouse; details: LPS 4 mg/kg i.p.; test substance 10 mg/kg i.v. (soybean oil emulsion) at 4 hr after LPS inoculation; observed 5 days
# Protocol: To investigate the treatment effect during the process toward an advanced degree after the onset of sepsis, the effect of a test substance (Reference Example B66) by administration after LPS inoculation in an endotoxin shock model was investigated. […] The test substance was prepared into an emulsified liquid of a soybean oil, and intravenously administered (10 mg/kg) immediately after, 1, 2, 4 and 6 hr after LPS inoculation. An emulsified liquid without a drug was intravenously administered to the control group immediately after LPS inoculation.
# [9] = system: male Sprague-Dawley rats, balloon-injured carotid artery; test: Rat balloon injury model, vascular thickening (DNA content of carotid artery); assay type: in vivo; details: 30 and 100 mg/kg/d i.p. once a day, 2 weeks
# Protocol: Using male Sprague-Dawley rats, the neck was incised under sodium pentobarbital (45 mg/kg ip) anesthesia to expose left carotid artery. A Forgaty catheter (2F, manufactured by Baxtar) was inserted from the […] to a bifurcation area of internal and external carotid arteries of left carotid artery, a balloon was blown and abraded to the aortic arch bifurcation. This operation was repeated three times to injure the common carotid artery. After the injury, the catheter was extracted, the incision was sutured, and the rats were individually bred in ordinary breeding cages. After 2 weeks from the injury, the rats were exsanguinated under anesthesia, and the left (injured) side and the right (non-injured) side of carotid arteries were removed by 5 mm on the heart side, at 5 mm from the internal and external carotid artery bifurcation area, and the DNA content was measured. The drug (Reference Example B3) was suspended in 0.5% methyl cellulose, and intraperitoneally administered once a day from the day of balloon injury operation to carotid artery enucleation. When balloon injury operation was performed, the drug was administered 30 min before anesthesia and the balloon injury was produced.
# [10] = system: female CBA/J mice, DSS induced colitis; test: Dextran sulfate induced colitis model; assay type: in vivo, mouse; details: for BW (%) / Hb / Ht (%) / RBC / WBC: means ± SE of six mice; for GBS (%) (grossly bloody stool): six mice
# Protocol: A 5% dextran sulfate (DSS) solution was placed in a water feeder to allow free drinking by female CBA/J mice (8 w) for 5 days, the solution was changed to 1% DSS solution on day 6 to allow free drinking for 7 days. The drug (Reference Example B3) (10-30 mg/kg) was suspended in 0.5% methyl cellulose (MC), and orally administered from day 6 under 1% DSS solution drinking once a day for 7 days. After 12 days of drinking DSS, the body weight was measured and stool was observed (grossly bloody stool: GBS). Blood was drawn and white blood count (WBC), red blood count (RBC), hemoglobin concentration (Hb) and hematocrit value (Ht) were measured by using an automatic cell counter (Sysmex).
# [11] = system: male DBA/1 mice, type II collagen induced arthritis; test: Collagen induced arthritis model; assay type: in vivo, mouse; details: for Arthritis incidence (%) / Arthritis index: 30 mg/kg orally once a day from collagen immunization
# Protocol: Bovine-derived type II collagen was dissolved in 0.050 acetic acid solution, and an equivalent amount of Freund's complete adjuvant was mixed therewith to give an emulsion. The collagen emulsion was administered intracutaneously into the tail head of male DBA/1 mice (6W) (n=10-12) at 100 μg/0.1 mL to induce arthritis. The levels of flare and edema of four limbs were visually observed during the progress thereof. The drug (Reference Example B3) (30 mg/kg) was suspended in 0.5% MC, and orally administered once a day from collagen immunization for 8 weeks (except Sundays). The onset of arthritis was evaluated every week, and the rate of onset was expressed by (number of limbs having arthritis/number of limbs of mice in one group×100). As indices of arthritis, for each limb, no change was 0, swelling of one finger or plural fingers was 1, flare and swelling seen in the entirety was 2, strong swelling seen in the entirety was 3, crampus tonicus of joint was 4, and the total of four limbs was 16, and arthritis was expressed in (total of all scores of onset mice/number of limbs of mice in one group), wherein 4 was the highest value for one limb.
# [12] = 10 mg/kg orally once a day for 7 days
# [13] = 30 mg/kg orally once a day for 7 days
smiles,measurement,setting,value
"CCOC(=O)C1=CCCCC1S(=O)(=O)Nc1ccc(F)cc1Cl (stereo not drawn) [Reference Example B26, ethyl 6-[N-(2-chloro-4-fluorophenyl)-sulfamoyl]-1-cyclohexene-1-carboxylate]",life-saving effect (survival),[1],clear life-saving effect
same,Suppressive rate (%) TNF-α,[2]; 1 μM,88%
same,Suppressive rate (%) TNF-α,[2]; 10 μM,100%
same,Suppressive rate (%) IL-6,[3]; 1 μM,93%
same,Suppressive rate (%) IL-6,[3]; 10 μM,96%
"CCOC(=O)C1=CCCCC1S(=O)(=O)Nc1ccc(Cl)cc1F (stereo not drawn) [Reference Example B1, ethyl 6-[N-(4-chloro-2-fluorophenyl)-sulfamoyl]-1-cyclohexene-1-carboxylate]",life-saving effect (survival),[4],clear life-saving effect
same,Suppressive rate (%) TNF-α,[2]; 1 μM,77%
same,Suppressive rate (%) TNF-α,[2]; 10 μM,99%
same,Suppressive rate (%) IL-6,[3]; 1 μM,80%
same,Suppressive rate (%) IL-6,[3]; 10 μM,100%
"CCOC(=O)C1=CCOCC1S(=O)(=O)Nc1ccc(F)cc1Cl (stereo not drawn) [Reference Example D7, ethyl 3-[(2-chloro-4-fluorophenyl)sulfamoyl]-3,6-dihydro-2H-pyran-4-carboxylate]",IC50,[5],18 nM
same,IC50,[6],530 nM
same,IC50,[7],> 1000 nM
"CCOC(=O)C1=CCCC[C@H]1S(=O)(=O)Nc1ccc(F)cc1Cl [Reference Example B66, ethyl (6R)-6-[(2-chloro-4-fluoroanilino)sulfonyl]-1-cyclohexene-1-carboxylate]",life-saving effect (survival),[8],clear life-saving effect
same,IC50,[5],10 nM
same,IC50,[6],> 1000 nM
same,IC50,[7],> 1000 nM
"CCOC(=O)C1=CCCCC1S(=O)(=O)Cc1ccc(F)cc1Cl (stereo not drawn) [Reference Example D4, ethyl 6-[(2-chloro-4-fluorobenzyl)sulfonyl]-1-cyclohexene-1-carboxylate]",IC50,[5],11 nM
same,IC50,[6],> 1000 nM
same,IC50,[7],> 1000 nM
"CCOC(=O)C1=CCCCC1S(=O)(=O)Nc1ccc(F)cc1F (stereo not drawn) [Reference Example B3, ethyl 6-[N-(2,4-difluorophenyl)sulfamoyl]-1-cyclohexene-1-carboxylate]",Suppressive rate (%) TNF-α,[2]; 1 μM,87%
same,Suppressive rate (%) TNF-α,[2]; 10 μM,97%
same,Suppressive rate (%) IL-6,[3]; 1 μM,100%
same,Suppressive rate (%) IL-6,[3]; 10 μM,100%
same,vascular thickening due to balloon injury (DNA content),[9],suppressed vascular thickening due to balloon injury in a dose-dependent manner
same,BW (%),[10]; [12],102.0 ± 7.1%
same,Hb,[10]; [12],13.2 ± 0.8 g/dL
same,Ht (%),[10]; [12],35.4 ± 2.7%
same,RBC,[10]; [12],607.5 ± 45.3 ×10^4/μL
same,WBC,[10]; [12],41.0 ± 4.1^+ ×10^2/μL
same,GBS (%) (grossly bloody stool),[10]; [12],83%
same,BW (%),[10]; [13],102.8 ± 7.9%
same,Hb,[10]; [13],12.9 ± 0.5 g/dL
same,Ht (%),[10]; [13],35.1 ± 2.7%
same,RBC,[10]; [13],616.7 ± 51.1 ×10^4/μL
same,WBC,[10]; [13],53.5 ± 7.8^+ ×10^2/μL
same,GBS (%) (grossly bloody stool),[10]; [13],67%
same,"changes in WBC, RBC, Hb and Ht induced by DSS",[10]; 10-30 mg/kg orally,"remarkably suppressed changes in WBC, RBC, Hb and Ht induced by DSS"
same,incidence and index of arthritis,[11]; 30 mg/kg orally,decreased the incidence and index of arthritis
same,Arthritis incidence (%),[11]; 6W,37.5%
same,Arthritis index,[11]; 6W,0.65
same,Arthritis incidence (%),[11]; 7W,40.0%
same,Arthritis index,[11]; 7W,0.80
same,Arthritis incidence (%),[11]; 8W,60.0%
same,Arthritis index,[11]; 8W,1.15
